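Exposure lasted 48 hours, with cells grown in 96-well plates and compounds tested at five concentrations. Abbreviation: GI50, concentration required for 50% inhibition of growth. TGI: concentration producing complete growth inhibition.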

Common to all, as to assay: NCI-60 cell line screen, 48 h
For experiment [1], the system named is A498 renal.
The test system of experiment [2] is ACHN renal.
Experiment [3] deals with HCC-2998 colon.
In experiment [4] the test system is HCT-116 colon.
Experiment [5] deals with KM12 colon.
In experiment [6] the test system is M14 melanoma.
For experiment [7], the system named is NCI-H460 lung.
Experiment [8] has as its system RXF 393 renal.
Experiment [9] deals with SNB-19 CNS.
The test system of experiment [10] is U251 CNS.

On to `Cc1cc(=O)[nH]c2cc3oc4ccccc4c3cc12`, for which the TGI was > 100 µM in experiment [1]; > 100 µM in [2]; 16.3 µM in experiment [3]; > 100 µM in [4]; > 100 µM in experiment [5]; > 100 µM in experiment [6]. Also, the TGI in experiment [7] was > 100 µM; in [8] it was > 100 µM; in experiment [9], > 100 µM; in [10], > 86.6 µM.
Turning to `CC1=C(C(=O)Nc2ccc(F)c(Cl)c2)C(c2ccc(Cl)cc2)NC(=O)N1` (stereo not given), the GI50 was 13.9 µM in experiment [1]; 22 µM in experiment [2]; 14.6 µM in experiment [3]; 12.8 µM in experiment [4]; 24.2 µM in [5]; 16.5 µM in experiment [6]. The GI50 in [7] was 17.5 µM; in experiment [8] it was 17.6 µM; in [9], 33.1 µM; in experiment [10], 16.7 µM. In addition, the TGI in experiment [1] turned out to be 29 µM; in [2] it was 63 µM; in [3], 27.7 µM; in experiment [4] it was 25.4 µM; in experiment [5], 52.1 µM; in [6], 33.6 µM. Also, the TGI in experiment [7] was 37.3 µM; in [8], 37.2 µM; in experiment [9], > 100 µM; in [10], 33.2 µM.
Turning to `COc1ccc(/C=C\c2cc(OC)c3c(c2)OCO3)c(O)c1O`, the TGI in [1] was 31.2 µM; in experiment [2] it was 32.7 µM; in experiment [3], > 58 µM; in [4], 17.7 µM; in experiment [5] it was 21.4 µM; in [6], 11.7 µM. Further, the TGI in experiment [7] was 22.2 µM; in experiment [8], 11.7 µM; in experiment [9], 23.6 µM; in experiment [10] it was 19.3 µM.
With `CC1=C(C#N)C23C(=O)c4ccccc4C(O)=C2C(=O)C=CC3(O)N1Cc1ccccc1` (stereo not given), the GI50 was > 100 µM in experiment [1]; 29.4 µM in experiment [2]; > 100 µM in [3]; 34.8 µM in experiment [4]; 42.4 µM in [5]; 32.8 µM in [6]. In addition, the GI50 is 30.3 µM in experiment [7], 26 µM in experiment [8], 40.1 µM in experiment [9] and 42 µM in [10]. For the same compound, the TGI in experiment [1], in experiment [2], in [3], in [4], in experiment [5] and in [6] was > 100 µM in each case. Further, the TGI in [7], in [8], in experiment [9] and in experiment [10] was > 100 µM each time.
Consider `O=C1C2=C(SCCS2)C(=O)c2ccccc21`, for which the TGI in [1] came to 3.65 µM; in experiment [2], 3.05 µM; in experiment [3], 3.11 µM; in [4], 3.04 µM; in experiment [5], 3.18 µM; in experiment [6], 3.33 µM. Further, the TGI in experiment [7] was found to be 3.38 µM; in [8], 3.56 µM; in [9] it was 2.87 µM; in experiment [10] it was 3.02 µM.
For `NC(CSC(c1ccccc1)(c1ccccc1)c1ccc2c(c1)OCO2)C(=O)O` (stereo not given), the GI50 is 0.518 µM in [1]; 4.06 µM in [2]; 0.35 µM in [3]; 0.358 µM in experiment [4]; 0.605 µM in [5]; 0.239 µM in experiment [6]. The GI50 in experiment [7] was 0.375 µM; in [8], 0.499 µM; in experiment [9] it was 0.665 µM; in experiment [10] it was 0.405 µM. The TGI in experiment [1] was 30.5 µM; in [2], > 100 µM; in experiment [3], 3.49 µM; in experiment [4], 29.6 µM; in experiment [5], > 100 µM; in experiment [6], 0.648 µM. Also, the TGI in [7] is > 40 µM; in [8], 54.1 µM; in experiment [9], > 100 µM; in experiment [10], > 74.5 µM.
In the case of `O=C(/C=C/c1ccccc1Cl)c1ccc(Cl)c(Cl)c1`, the TGI stood at 33.9 µM in experiment [1]; 28.6 µM in [2]; 28.8 µM in experiment [3]; 23.6 µM in experiment [4]; 29.7 µM in experiment [5]; 33.4 µM in experiment [6]. Also, the TGI in experiment [7] was > 100 µM; in [8], 26 µM; in experiment [9], 29.9 µM; in experiment [10], 31.1 µM.
With `CC(=O)[O][Hg][c]1c(N)c(C)cc(C)c1F`, the GI50 was 5.35 µM in [1]; 1.61 µM in experiment [2]; 2.28 µM in experiment [3]; 1.88 µM in experiment [4]; 10.6 µM in experiment [5]; 1.55 µM in experiment [6]. The GI50 in [7] was 1.74 µM; in experiment [8], 1.52 µM; in experiment [9], 1.99 µM; in [10], 0.672 µM. In addition, the TGI in [1] was determined as 15.8 µM; in experiment [2] it was 3.08 µM; in experiment [3], 4.87 µM; in experiment [4], 3.92 µM; in experiment [5] it was 22.7 µM; in experiment [6], 3.29 µM. The TGI in experiment [7] came out at 4.3 µM; in experiment [8], 2.88 µM; in experiment [9] it was 5.13 µM; in experiment [10], 2.06 µM.
With `COc1ccc2nc3cc(Cl)ccc3c(Sc3ccccc3[N+](=O)[O-])c2c1`, the TGI in experiment [1], in experiment [2], in [3], in experiment [4], in experiment [5] and in experiment [6] was > 100 µM in each case. Further, the TGI was > 100 µM in [7], 93.2 µM in [8], > 100 µM in experiment [9] and > 100 µM in [10].
Turning to `CCCCCCCC(=O)SCC/C=C/[C@@H]1CC(=O)NCc2cccc(n2)C2=N[C@@](C)(CS2)C(=O)N[C@@H](C(C)C)C(=O)N1`, the GI50 in experiment [1] is 0.394 µM; in experiment [2], 2.71 µM; in experiment [3], 1.02 µM; in experiment [4] it was 0.166 µM; in experiment [5], 1.21 µM; in experiment [6] it was 1.32 µM. For the same compound, the GI50 was 0.532 µM in [7], 2.14 µM in experiment [8], 2.06 µM in experiment [9] and 0.889 µM in experiment [10]. In addition, the TGI was 6.2 µM in [1]; > 33.3 µM in [2]; 7.48 µM in experiment [3]; 5.09 µM in experiment [4]; > 33.3 µM in [5]; > 33.3 µM in [6]. Also, the TGI in experiment [7] was > 33.3 µM; in [8] it was 19.9 µM; in [9], > 33.3 µM; in experiment [10], 8.16 µM.
In the case of `CC(=O)OC1COC(n2c(=S)n(-c3ccc(C)cc3)c(=O)c3ccccc32)C(OC(C)=O)C1OC(C)=O` (stereo not given), the TGI in [1], in [2], in [3], in [4], in [5] and in experiment [6] was > 100 µM throughout. The TGI in [7], in [8], in experiment [9] and in experiment [10] was > 100 µM throughout.
In the case of `C=C(CNCCO)[C@@H]1CC[C@]2(CO)CC[C@]3(C)[C@H](CC[C@@H]4[C@@]5(C)CCC(N)C(C)(C)[C@@H]5CC[C@]43C)[C@@H]12` (stereo not given in full), the GI50 is 9.55 µM in experiment [1]; 12.2 µM in [2]; 1.98 µM in experiment [3]; 1.81 µM in [4]; 3.4 µM in experiment [5]; 2.05 µM in experiment [6]. Also, the GI50 in [7] was 1.94 µM; in experiment [8] it was 1.53 µM; in [9], 2.27 µM; in experiment [10], 1.55 µM. Moreover, the TGI was 22.6 µM in experiment [1]; 25 µM in experiment [2]; 3.81 µM in [3]; 3.84 µM in [4]; 10.1 µM in experiment [5]; 3.97 µM in [6]. Moreover, the TGI in [7] was found to be 4.12 µM; in experiment [8] it was 3.08 µM; in experiment [9], 5.23 µM; in experiment [10], 2.89 µM.
As for `Cc1nc2c(nc1C)C(=O)c1ccccc1C2=O`, the TGI in [1] turned out to be 8.98 µM; in [2], 35.4 µM; in experiment [3], 15 µM; in experiment [4], 13 µM; in experiment [5], 35.3 µM; in [6] it was 2.26 µM. The TGI in experiment [7] turned out to be 3.2 µM; in [8], 53.9 µM; in experiment [9], 19.4 µM; in [10] it was 34.6 µM.
As for `O=C1c2ccccc2C(=O)c2sc(Nc3cccc(Cl)c3)nc21`, the TGI in experiment [1] was 12.6 µM; in experiment [2], 3.03 µM; in [3], 5.3 µM; in [4], 2.54 µM; in experiment [5], 4.1 µM; in experiment [6], 3.24 µM. Besides, the TGI was 4.25 µM in experiment [7], 3.19 µM in experiment [8], 4.36 µM in [9] and 2.97 µM in [10].

Source of the values: PubChem BioAssay (NCI).
